Values quoted from earlier work, collected in patent US7767208B2, “Noninvasive vascular therapy” (Light Sciences Oncology, Inc., priority 1999, dated 2010).

Settings: systemically administered sensitizer in clinical use; for sensitize the skin for: duration of skin sensitization

Oc1cccc(-c2c3nc(c(-c4cccc(O)c4)c4ccc([nH]4)c(-c4cccc(O)c4)c4nc(c(-c5cccc(O)c5)c5ccc2[nH]5)CC4)C=C3)c1 [Foscan]
sensitize the skin for: several weeks

sodium porfimer [Photophrin]
photosensitivity lasting (skin photosensitivity): up to 6 weeks

CCOC(=O)C1=Cc2c3nc(cc4nc(cc5[n-]c(cc6[n-]c2c(C)c6CC)c(C)c5CC)C(C)=C4CC)[C@@H](C)[C@]13CC.[Cl-].[Cl-].[Sn] (racemic) [Purlytin]
sensitize the skin for: several weeks
